Experimental data reported in patent publication US11077126B2 (priority 2017, dated 2021).

How the values were obtained:
[1] = test system: spleen lymphocytes (ConA, LPS stimulation); assay: Spleen lymphocyte proliferation activity of Lewis lung cancer tumor-bearing mice; format: in vivo, C57BL/6 mouse
Description: (§1) The serum-free RPMI 1640 medium was placed in a dish, and then the dish was placed on ice. The spleen was aseptically taken and gently ground with a sterile glass slide to prepare a single cell suspension. The single cell suspension was filtered with a double-layer sterile gauze, washed twice with serum-free RPMI 1640 medium, and centrifuged at 1,500 rpm for 5 min to remove the obtained supernatant. 2 mL of red blood cell lysate was added to the treated suspension, the mixture was allowed to stand for 2 min, and then 8 mL of RPMI 1640 medium was added, centrifuging was performed at 1,500 rpm for 5 min to remove the obtained supernatant, and then washing was performed twice with the RPMI 1640 medium. Trypan blue staining was performed to count the number of live cells, and the cell viability was more than 95%. A single cell suspension was prepared by using a RPMI 1640 medium containing 10% fetal bovine serum.
The spleen cell suspension was taken, and the cell density was adjusted to 1×10^7/mL. Each mouse was set with: A. a control well: 100 μL of RPMI 1640 medium was added; B. a concanavalin A (ConA) stimulation well: 100 μL (10 mg/L) of concanavalin A (ConA) solution was added; and C. a bacterial endotoxin (LPS) stimulating well: 100 μL (20 mg/L) of bacterial endotoxin (LPS) solution was added. The above cells were added to a 96-well plate, and then 100 μL of spleen cell suspension was added to each of the above wells. After the culture plate was transferred to a saturated humidity condition with a volume fraction of 5% CO2 at 37° C. for incubation for 72 h, 10 μL of MTT solution (5 g/L) was added to each well, and incubation was continued to be performed for 4 hours under the same conditions, then the culture was terminated. […] The Optical Density (OD) of each well was measured at 570 nm, and the lymphocyte proliferation rate was calculated. Lymphocyte proliferation rate (%)=[(T−C)/C]×100%, wherein T is the Optical Density of the stimulation well, and C is the Optical Density of the control well.

[2] = test system: NK cell activity of spleen cells against K562 cells; assay: Natural killer (NK) cell activity of Lewis lung cancer tumor-bearing mice; format: in vivo, C57BL/6 mouse
Description: as §1, with “A single cell suspension was prepared by using a RPMI 1640 medium containing 10% fetal bovine serum.” left out
The spleen cell suspension was taken, and the cell density was adjusted to 1×10^7/mL (effector cells). […] Each mouse was set with: A. effector cells:target cell well (quantity ratio 20:1) to which 20 μL of spleen cell suspension and 100 μL of K562 cell suspension were added; B. an effector cell control well, to which 100 μL of spleen cell suspension and 100 μL of RPMI 1640 medium were added; and C. a target cell control well, to which 100 μL of K562 cell suspension and 100 μL of RPMI 1640 medium were added. […]

[3] = test system: transplanted tumor of mouse H22 liver cancer; assay: Inhibition of transplanted tumor of mouse H22 liver cancer
Description: The H22 cell strains cryopreserved in liquid nitrogen were resuscitated in Kunming mice. After 3 generations, the ascites of Kunming mice were taken and placed in a 50 ml centrifuge tube in which 10 ml of 0.9% normal saline was added, and then centrifuging was performed at 1000 rpm for 5 min at room temperature, and the obtained supernatant was removed. Then 10 ml of 0.9% normal saline was added to the tube to blow and mix well, and then the mixture was diluted to 5×10^6 live cells/ml with normal saline after counting. The tube was stored in ice water, and 75% ethanol was used to disinfect the skin under the right armpits of the mice. Each Kunming mouse was soon inoculated subcutaneously with 0.2 ml of the cells at the armpit of the right forelimb.
In the H22 liver cancer model, the mice inoculated with the tumor were randomly divided into groups with 10 mice in each group on the next day of inoculation. […] Each group was continuously administered intragastrically for 7 days with a dose of 20 ml/kg.
The tumor-bearing mice were weighed and sacrificed the next day after the last administration. The subcutaneous tumors were dissected and weighed. The average tumor weight of each group is calculated, and the tumor inhibition rate is calculated. Tumor inhibition rate=(1−T/C)×100%
T: average tumor weight of the drug-administered group; C: average tumor weight of the blank control group.

[4] = test system: transplanted tumor of human prostate cancer PC3 cells; assay: Human prostate cancer in nude mice model; settings: 30 mg/kg i.g. 30 d
Description: Then cell concentration was adjusted to 1×10^7/ml with matrigel, and then each nude mouse was inoculated subcutaneously with 0.2 ml of cells at its right armpit and recorded as the first day of inoculation. […] Each group was continuously administered intragastrically for 30 days with a dose of 20 ml/kg. The mice were sacrificed the next day after drug withdrawal and the indicators were tested. The long diameter and short diameter of the tumor, and the body weight of each mouse were recorded every 3 days from drug administration to nude mouse sacrifice.
The body weight of the nude mice and the long diameter (a) and short diameter (b) of the transplanted tumor were measured every 3 days, and the tumor volume (v), relative tumor volume (RTV) and relative tumor proliferation rate (T/C) are calculated respectively according to the following formulas, wherein V=a×b^2/2; RTV=V/V0 (V0 is the tumor volume before administration, V is the tumor volume before sacrifice), and T/C (%)=treatment group RTV/model control group RTV×100%.
Each mouse was weighed and sacrificed. After the tumor was completely stripped off from the body of the mouse, the non-tumor tissues such as blood stains and fat were removed to weigh the tumor and calculate the tumor growth inhibition rate. The average tumor weight of each group of mice is used as an indicator of efficacy. Tumor growth inhibition rate (%)=(1−the average tumor weight of the treatment group/the average tumor weight of the model group)×100%.

[5] = test system: thymus and spleen of H22 liver cancer tumor-bearing mice; format: in vivo
Description: (§2) After the tumor-bearing mice are sacrificed, the spleen and thymus are weighed, and the spleen index and thymus index are calculated.

[6] = test system: spleen of A549 lung cancer tumor-bearing mice; format: in vivo
Description: as §2

[7] = 26 mg/kg, positive drug group, n = 6
[8] = H22 tumor-bearing mice, cyclophosphamide, P<0.01

## O=P1(N(CCCl)CCCl)NCCCO1 (stereo not shown) [Cyclophosphamide]
[1]; [7]
  B Lymphocyte Proliferation Activity (%): 11.63 ± 4.68 %
  T Lymphocyte Proliferation Activity (%): 13.24 ± 3.72 %
[1]; Lewis lung cancer tumor-bearing mice, cyclophosphamide, P<0.05
  lymphocyte activity (proliferation): significantly inhibited
[2]; 26 mg/kg, n = 6
  NK Cell Activity (%): 25.4 ± 6.6 %
[2]; cyclophosphamide, P<0.05
  NK cell activity compared with the control group: significantly lower
[3]; 26 mg/kg, positive drug group
  tumour: 0.53 ± 0.24 g
[3]; 26 mg/kg, positive drug group, by tumor weight
  Inhibition Rate (%): 47.25%
[3]; 26 mg/kg, positive drug group, d1
  Body Weight (g)(d1): 23.50 ± 1.90 g
[3]; 26 mg/kg, positive drug group, d7
  Body Weight (g) (d7): 25.13 ± 2.69 g
[3]; H22 liver cancer mice, cyclophosphamide 26 mg/kg
  weight compared with the normal control group: slight decrease in weight
[3]; Kunming mouse H22 liver cancer, cyclophosphamide 26 mg/kg i.g. 7 days
  tumor inhibition rate: 47.25%
[4]
  Body Weight (g)(d1): 19.32 ± 0.25 g
  Body Weight (g)(d30): 18.68 ± 1.21 g
  Inhibition Rate (%): 70.06%
  Relative Tumor Proliferation Rate(T/C): 23.29%
  Relative Tumor Volume (RTV): 4.67 ± 0.82
  Tumor Volume (mm3) (d1): 108.68 ± 13.62 mm3
  Tumor Volume (mm3) (d30): 507.88 ± 87.93 mm3
  Tumor Weight: 0.56 ± 0.4 g
[5]; 26 mg/kg, positive drug group
  Spleen Index (%): 0.38 ± 0.09 %
  Thymus Index (%): 0.04 ± 0.02 %
[5]; [8]
  spleen index compared with the control group: significantly lower
  thymus index compared with the control group: significantly lower
[6]; [7]
  Spleen Index (%): 0.20 ± 0.03 %
[6]; A549 lung cancer tumor-bearing mice, cyclophosphamide, P<0.01
  spleen index compared with the control group: significantly lower
